Assay results from US9109048B2, “Inhibition of tumor growth” (priority 1998, dated 2015).
pEC50: −log10 of the molar value. Ends that are not written are not given here.

What was measured:
Type in all cases: cell-based
[1] = tested on: Escherichia coli ATCC 25922; test: MIC (minimum inhibitory concentration) test, microdilution; details: for Mic E-coli: Table 19
Method: (§1) The bacterial strains used were: Escherichia coli ATCC 25922 and Staphylococcus aureus ATCC 25923. All strains were stored at −70° C. The bacteria were grown in 2% Bacto Peptone water (Difco 1807-17-4). All tests were performed with bacteria in mid-logarithmic growth phase. Determination of the minimum inhibitory concentration (MIC) of the peptides for bacterial strains were performed in 1% Bacto Peptone water. A standard microdilution technique with an inoculum of 2×10^6 CFU/ml was used. All assays were performed in triplets. Since the peptides are positively charged and therefore could adhere to the plastic wells, we controlled the actual concentration of the peptides in the solution by HPLC. There was no difference between the concentration of the peptides before or after adding the solution to the plastic wells.

[2] = tested on: Staphylococcus aureus ATCC 25923; test: as above
Method: as §1

human red blood cells = test: Hemolytic assay; details: red cells of human
Method: The hemolytic activities of the peptides were determined using fresh human red blood cells. 8 ml blood was taken from a healthy person. 4 ml blood was transferred to a polycarbonate tube containing heparin to a final concentration of 10 U/ml, and the remaining 4 ml blood was transferred to a glass tube containing EDTA with final concentration of 15% EDTA. The erythrocytes were isolated from heparin-treated blood by centrifugation in 1500 rpm for 10 min and washed three times with phosphate-buffered saline (PBS) to remove plasma and buffy coat. The cell pellet was resuspended in PBS to make the final volume of 4 ml. The peptide was diluted to a concentration of 2 mg/ml and 0.1 mg/ml. The peptide was further diluted to the concentrations as stated in Table 1. For each tube PBS was added first, then RBCs and peptide solutions. The hematocrit in the blood treated with EDTA was determined after 30 min with Sysmex K-1000, and the resuspended RBCs were diluted into 10% hematocrit. RBCs in PBS (1%) with and without peptides (Table 18) were incubated in a shaker at 37° for 1 hour and then centrifuged at 4000 rpm for 5 min. The supernatant were carefully transferred to new polycarbonate tubes and the absorbance of the supernatant was measured at 540 nm. Baseline hemolysis was hemoglobin released in the presence of PBS, and 100% hemolysis was hemoglobin released in the presence of 0.1% Triton X-100.

| Substance | MIC E. coli ([1]; ATCC 25922) | MIC S. aureus ([2]; ATCC 25923) | MIC E. coli ([1]; Table 15) [µg/mL] | EC 50 (toxicity, hemolysis) (human red blood cells) [µg/mL] | other results |
| --- | --- | --- | --- | --- | --- |
| GIGKFLKKARKWGRAWVRILKKG [Tosmag W12,16] | 5 µg/mL | 10 µg/mL |  |  |  |
| GIGKFWHWAKKFGKAFVGEIMNS [Mag 2 W 6,8] | >100 µg/mL | >100 µg/mL |  |  |  |
| PAIRKAFRWAWRMLKKAA [LFB 14-31A2,6,10,17F7I3K16L14R4] |  |  |  |  | Mic E-coli [1]: 2/4; Mic S. Aureus ([2]; Table 19): 2/4 |
| PAWFKARRWAWRMLKKAA-OH [LFB 14-31 A2,6,10,17 K16L14] | 4.4 µM | 4.4 µM | 10.0 | >1000 | MIC S. aureus ([2]; Table 15): 10.0 µg/mL; pEC50 (human red blood cells): < 3.36 |
| PAWRKAFRWAIRMLKKAA [LFB 14-31A2,6,10,17F7I11K16L14R4] |  |  |  |  | Mic E-coli [1]: 2/5 |
| PAWRKAFRWAWRMLKKAA-OH [LFB 14-31 A2,6,10,17 F7K16L14R4] |  |  |  |  | Mic E-coli [1]: 2/4 |
| PAWRKARRWARRMKKLAA-OH [LFB 14-31 A2,6,10,17R4,11] |  |  |  | >1000 |  |
| YRAWRWAWRWR-NH2 [LFM 17-27 A7R2,8,9W3,4,10Y1 NH2, TYR-ARG-ALA-TRP-ARG-TRP-ALA-TRP-ARG-TRP-ARG-CONH2] | 10 µg/mL | 2.5 µg/mL |  |  |  |

Second part, led by results:

| MIC E. coli ([1]; ATCC 25922) | MIC S. aureus ([2]; ATCC 25923) | MIC E. coli ([1]; Table 15) [µg/mL] | Substance | EC 50 (toxicity, hemolysis) (human red blood cells) [µg/mL] | other results |
| --- | --- | --- | --- | --- | --- |
| 4.4 µM |  | 10.0 | PAWRKAFRWAWRMKKLAA-OH [LFB 14-31 A2,6,10,17F7R4] | >1000 | MIC E. coli ([1]; Table 8): 10 µg/mL; pEC50 (human red blood cells): < 3.36 |
| 100 µg/mL | 200 µg/mL |  | RRWQWRMKKLGA-OH [LFB 20-31] |  | Minimum inhibitory concentration (MIC) E. coli ATCC 25922 ([1]; Table 1, value in parentheses): 62 µM; Minimum inhibitory concentration (MIC) S. aureus ATCC 25923 ([2]; Table 1, value in parentheses): 124 µM |
| 5.7 µM |  | 10.0 | YRMWRWAWRWR-NH2 [LFB 17-27 A7 M3 R2,11 W4,10 Y1 NH2] |  |  |
| 7.0 µM |  | 10.0 | YRWARWWRR-NH2 [LFM 17-25 A4R2,8,9W3,7Y1NH2] | >1000 | MIC E. coli ([1]; Table 12): 10 µg/mL; pEC50 (human red blood cells): < 3.16 |
